Laboratory results: patent US6630497B2, “1-phenyl imidazol-2-one biphenylmethyl compounds for treatment of circulatory disorders” (G.D. Searle & Co, priority 1993, dated 2003)

Key:
[1] = system: pressor response to AII; assay: Assay C: In Vivo Intragastric Pressor Assay Response for AII Antagonists; conditions: rat, 3 mg/kg intragastric (i.g.); for Assay C Inhibition (%): inhibition of pressor response to 30 ng/kg AII bolus; for Assay C Duration: duration of inhibition of AII pressor response, measured up to 180 min
Protocol: Male Sprague-Dawley rats weighing 225-300 grams were anesthetized with methohexital (30 mg/kg, i.p.) and catheters were implanted into the femoral artery and vein. The catheters were tunneled subcutaneously to exit dorsally, posterior to the head and between the scapulae. The catheters were filled with heparin (1000 units/ml of saline). The rats were returned to their cage and allowed regular rat chow and water ad libitum. After full recovery from surgery (3-4 days), rats were placed in Lucite holders and the arterial line was connected to a pressure transducer. Arterial pressure was recorded on a Gould polygraph (mmHg). Angiotensin II was administered as a 30 ng/kg bolus via the venous catheter delivered in a 50 μl volume with a 0.2 ml saline flush. The pressor response in mm Hg was measured by the difference from pre-injection arterial pressure to the maximum pressure achieved. The AII injection was repeated every 10 minutes until three consecutive injections yielded responses within 4 mmHg of each other. These three responses were then averaged and represented the control response to AII. The test compound was suspended in 0.5% methylcellulose in water and was administered by gavage. The volume administered was 2 ml/kg body weight. The standard dose was 3 mg/kg. Angiotensin II bolus injections were given at 30, 45, 60, 75, 120, 150, and 180 minutes after gavage. The pressor response to AII was measured at each time point. The rats were then returned to their cage for future testing. A minimum of 3 days was allowed between tests. Percent inhibition was calculated for each time point following gavage by the following formula: [(Control Response—Response at time point)/Control Response] ×100.

[2] = molecular target: smooth muscle angiotensin II receptor; assay: Assay A: Angiotensin II Binding Activity (125I-AII displacement, rat uterine membrane preparation); conditions: 50% displacement of specifically bound 125I-AII, rat uterine membranes, 25° C., 60 min
Protocol: Compounds of the invention were tested for ability to bind to the smooth muscle angiotensin II receptor using a rat uterine membrane preparation. […] Other chemicals were obtained from Sigma Chemical Co. This assay was carried out according to the method of Douglas et al [Endocrinology, 106, 120-124 (1980)]. Rat uterine membranes were prepared from fresh tissue. All procedures were carried out at 4° C. Uteri were stripped of fat and homogenized in phosphate-buffered saline at pH 7.4 containing 5 mM EDTA. The homogenate was centrifuged at 1500×g for 20 min., and the supernatant was recentrifuged at 100,000×g for 60 min. The pellet was resuspended in buffer consisting of 2 mM EDTA and 50 mM Tris-HCl (pH 7.5) to a final protein concentration of 4 mg/ml. […] The reaction was initiated by the addition of membrane protein and the mixture was incubated at 25° C. for 60 min. The incubation was terminated with ice-cold 50 mM Tris-HCl (pH 7.5) and the mixture was filtered to separate membrane-bound labelled peptide from the free ligand. The incubation tube and filter were washed with ice-cold buffer. Filters were assayed for radioactivity in a Micromedic gamma counter. Nonspecific binding was defined as binding in the presence of 10 μM of unlabelled AII. Specific binding was calculated as total binding minus nonspecific binding.
Binding data were analyzed by a nonlinear least-squares curve fitting program.

[3] = system: rabbit aortic rings; assay: Assay B: In Vitro Vascular Smooth Muscle Response for AII; assay type: cell-based; parameters: key: NC = Non-competitive Antagonist; conditions: AII contraction
Protocol: The compounds of the invention were tested for antagonist activity in rabbit aortic rings. Male New Zealand white rabbits (2-2.5 kg) were sacrificed using an overdose of pentobarbital and exsanguinated via the carotid arteries. The thoracic aorta was removed, cleaned of adherent fat and connective tissue and then cut into 3-mm ring segments. The endothelium was removed from the rings by gently sliding a rolled-up piece of filter paper into the vessel lumen. The rings were then mounted in a water-jacketed tissue bath, maintained at 37° C., between moveable and fixed ends of a stainless steel wire with the moveable end attached to an FT03 Grass transducer coupled to a Model 7D Grass Polygraph for recording isometric force responses. The bath was filled with 20 ml of oxygenated (95% oxygen/5% carbon dioxide) Krebs solution of the following composition (mM): […], 1.2 NaH2P04, 1.2 MgS04, 2.5 CaCl2, and 11.4 glucose. The preparations were equilibrated for one hour before approximately one gram of passive tension was placed on the rings. Angiotensin II concentration-response curves were then recorded (3×10^−10 to 1×10^−5 M). […] The effectiveness of the test compound was expressed in terms of pA2 values and were calculated according to H. O. Schild [Br. J. Pharmacol. Chemother., 2,189-206 (1947)]. […] Each test antagonist was evaluated in aorta rings from two rabbits.

Compound | IC50 [2] [nM] | melting point | Assay C Inhibition (%) [1] | Assay B pA2: type of antagonism [3] | Assay C Duration [1] [min]
CCCCc1cn(-c2ccccc2CC)c(=O)n1Cc1ccc(-c2ccccc2-c2nnn[nH]2)cc1 [Example 1, 1-(2-ethylphenyl)-4-butyl-1,3-dihydro-3-[2′-(1H-tetrazol-5-yl)[1,1′-biphenyl]-4-ylmethyl]-2H-imidazol-2-one] | 14 | 188 to 189 °C | 20%/— | NC | 
CCCCc1cn(-c2ccccc2C(C)C)c(=O)n1Cc1ccc(-c2ccccc2-c2nnn[nH]2)cc1 [Example 2, 1-(2-isopropylphenyl)-4-butyl-1,3-dihydro-3-[2′-(1H -tetrazol-5-yl)[1,1′-biphenyl]-4-ylmethyl]-2H-imidazol-2-one] | 97 | 167 to 168 °C | 70% | NC | > 180
CCCCc1cn(-c2c(OC)cccc2OC)c(=O)n1Cc1ccc(-c2ccccc2-c2nnn[nH]2)cc1 [Example 3, 1-(2,6-dimethoxyphenyl)-4-butyl-1,3-dihydro-3-[2′-(1H -tetrazol-5-yl)[1,1′-biphenyl]-4-ylmethyl]-2H-imidazol-2-one] | 9.8 | 189 to 191 °C (dec.) | 25% |  | > 180
CCCCc1cn(-c2c(C)cc(C)cc2C)c(=O)n1Cc1ccc(-c2ccccc2-c2nnn[nH]2)cc1 [Example 8, 1-(2,4,6-trimethylphenyl)-4-butyl-1,3-dihydro-3-[2′-(1H-tetrazol-5-yl)[1,1′-biphenyl]-4-ylmethyl]-2H -imidazol-2-one] | 30 | 187 to 188 °C (dec.) | 50% |  | > 180
CCCCc1cn(-c2c(C)cc(C(C)(C)C)cc2C)c(=O)n1Cc1ccc(-c2ccccc2-c2nnn[nH]2)cc1 [Example 9, 1-(2,6-dimethyl-4-tertbutylphenyl) -4-butyl-1,3-dihydro-3-[2′-(1H-tetrazol-5-yl)[1,1′-biphenyl]-4-ylmethyl]-2H -imidazol-2-one] | 270 | 134 to 135 °C |  |  | 

Further compounds by falling IC50 [2], results first:

IC50 [2] [nM] | melting point | Compound | Assay C Inhibition (%) [1] | Assay B pA2: type of antagonism [3] | Assay C Duration [1] [min]
190 | 202 to 203 °C (dec.) | CCCCc1cn(-c2c(C(C)C)cccc2C(C)C)c(=O)n1Cc1ccc(-c2ccccc2-c2nnn[nH]2)cc1 [Example 7, 1-(2,6-diisopropylphenyl)-4-butyl-1,3-dihydro-3-[2′-(1H-tetrazol-5-yl)[1,1′-biphenyl]-4-ylmethyl]-2H -imidazol-2-one] |  |  | 
33 | 198 to 200 °C (dec.) | CCCCc1cn(-c2c(CC)cccc2CC)c(=O)n1Cc1ccc(-c2ccccc2-c2nnn[nH]2)cc1 [Example 6, 1-(2,6-diethylphenyl) -4-butyl-1,3-dihydro-3-[2′-(1H -tetrazol-5-yl) [1,1′-biphenyl]-4-ylmethyl]-2H-imidazol-2-one] | <20% |  | 
13 | 163 to 164 °C | CCCCc1cn(-c2c(C)cccc2Cl)c(=O)n1Cc1ccc(-c2ccccc2-c2nnn[nH]2)cc1 [Example 4, 1-(2-chloro-6-methylphenyl) -4-butyl-1,3-dihydro-3-[2′-(1H-tetrazol-5-yl) [1,1′-biphenyl]-4-ylmethyl]-2H -imidazol-2-one] | 35% |  | > 180
6.3 | 177 to 178 °C (dec.) | CCCCc1cn(-c2c(C)cccc2C)c(=O)n1Cc1ccc(-c2ccccc2-c2nnn[nH]2)cc1 [Example 5, 1-(2,6-dimethylphenyl)-4-butyl-1,3-dihydro-3-[2′-(1H-tetrazol-5-yl)[1,1′-biphenyl]-4-ylmethyl]-2H -imidazol-2-one] | 40% |  | > 180
